Data on three molecules can be found in patent EP2243478A1, “PHARMACEUTICAL COMPOSITION COMBINING AN ANTIARTHRITIC AGENT AND AN INTERLEUKIN-1 INHIBITING AGENT, WHICH CAN BE USED TO CONTROL AND TREAT OSTEOARTHRITIS AND RELATED DISEASES” (World Trade Import-Export, WTIE A.G., priority 2007, dated 2009).

The test system of data set [1] is patients with hip OA. The data set can be described thus: comparative clinical study of Diacerein, Chondroitin and the combination Diacerein/Chondroitin, 6 month follow-up. The data set is classed as in vivo. How it is done:
A comparative clinical study in patients with hip OA was carried out with a 6 month term for follow-up. The study compared the efficacy of single Diacerein administration, single chondroitin and a combination of Diacerein/Chondroitin. The study included 120 patients which were divided in 3 treatment groups: • Groups 1: received Diacerein 50 mg administration twice a day. • Group 2: received Chondroitin 600 mg administration twice a day. • Group 3 : received Diacerein 50 mg /Chondroitin 600 mg administration twice a day.
Patients fulfilled with the inclusion criteria from the American Rheumatology Academy. Inclusion criteria were: • Symptomatic disease presence, defined as daily hip pain at least during the last two months. • A functional pain Lequesne index at least of 3 points. • Radiographic criteria were a joint space between 1 and 3 mm (without exceeding 3 mm) or less than 0.5 mm qf contralateral hip.
Joint hip space was measured through a prior pelvic radiography reading center, using a graded 0.1 mm magnification crystal. Start and end of treatment was radiographically assessed comparing the affected vs contralateral hip.
Laboratory analyses were carried out at the beginning of the study and on 6 months of treatment, assessing liver and kidney performance.

For data set [2] the following is noted: in vivo; cited from earlier work.
The conditions of data set [3]: cited from earlier work.
Data set [4] has as its system pain. Particulars: dose from 2 to 4 gr/day; cited from earlier work.
The conditions of data set [5]: cited from earlier work. The source holds these as a separate data set.

Structures are written as SMILES. Where only a bound is given, the exact number is not on record here.

As for `CC(=O)Oc1cccc2c1C(=O)c1c(OC(C)=O)cc(C(=O)O)cc1C2=O` [Diacerein], the “Patient percentage with radiographic progression (joint space loss at least of 0.5 mm)” value in data set [1] (Data from first laboratory analysis, P= 0.035) worked out at 51.6%; in data set [1] (Data upon 6 month treatment completion, P= 0.006), 46.7%. In addition, the “patients cancelled the treatment (because of inefficacy)” value in data set [1] (after two months of treatment (time printed for Group 1), forty patients per group, twice a day oral) is recorded as 6 patients. For the same molecule, the “joint space, Average ± SD” value in data set [1] (at 6 months of treatment, hip) was found to be 0.17 ± 0.24 mm/6 months. Also, the “clearance half-life in plasma” value in data set [2] is 5 to 7 h. Also, the “slow action start, not significant until” value in data set [3] (after treatment) was 4 weeks. Besides, in data set [3] (in vivo), the “effect is maintained after having cancelled the treatment” value was at least 2 months.

As for `CC(=O)Nc1ccc(O)cc1` [Paracetamol], the “controlling pain in patients” value in data set [4] is on record as 40 % of patients.

`O=C(O)c1cc(O)c2c(c1)C(=O)c1cccc(O)c1C2=O` [Rein, rein]: in data set [5], the “bound to plasma proteins” value was 99%.
